{
  "source": "patent US8541649B2",
  "about": "“Brassinosteroid regulated kinases (BRKs) that mediate brassinosteroid signal transduction and uses thereof” (priority 2008, dated 2013)",
  "key": {"BRI1-GFP and BRK1-myc": {"target": "T1, BRI1-GFP and BRK1-myc (Arabidopsis thaliana, UniProt O22476)", "T1 construct": "expressed in transfected cells; host or cells: transgenic Arabidopsis plants (rosette leaves, microsomal fraction)", "T1 sequence (O22476 24-1196)": "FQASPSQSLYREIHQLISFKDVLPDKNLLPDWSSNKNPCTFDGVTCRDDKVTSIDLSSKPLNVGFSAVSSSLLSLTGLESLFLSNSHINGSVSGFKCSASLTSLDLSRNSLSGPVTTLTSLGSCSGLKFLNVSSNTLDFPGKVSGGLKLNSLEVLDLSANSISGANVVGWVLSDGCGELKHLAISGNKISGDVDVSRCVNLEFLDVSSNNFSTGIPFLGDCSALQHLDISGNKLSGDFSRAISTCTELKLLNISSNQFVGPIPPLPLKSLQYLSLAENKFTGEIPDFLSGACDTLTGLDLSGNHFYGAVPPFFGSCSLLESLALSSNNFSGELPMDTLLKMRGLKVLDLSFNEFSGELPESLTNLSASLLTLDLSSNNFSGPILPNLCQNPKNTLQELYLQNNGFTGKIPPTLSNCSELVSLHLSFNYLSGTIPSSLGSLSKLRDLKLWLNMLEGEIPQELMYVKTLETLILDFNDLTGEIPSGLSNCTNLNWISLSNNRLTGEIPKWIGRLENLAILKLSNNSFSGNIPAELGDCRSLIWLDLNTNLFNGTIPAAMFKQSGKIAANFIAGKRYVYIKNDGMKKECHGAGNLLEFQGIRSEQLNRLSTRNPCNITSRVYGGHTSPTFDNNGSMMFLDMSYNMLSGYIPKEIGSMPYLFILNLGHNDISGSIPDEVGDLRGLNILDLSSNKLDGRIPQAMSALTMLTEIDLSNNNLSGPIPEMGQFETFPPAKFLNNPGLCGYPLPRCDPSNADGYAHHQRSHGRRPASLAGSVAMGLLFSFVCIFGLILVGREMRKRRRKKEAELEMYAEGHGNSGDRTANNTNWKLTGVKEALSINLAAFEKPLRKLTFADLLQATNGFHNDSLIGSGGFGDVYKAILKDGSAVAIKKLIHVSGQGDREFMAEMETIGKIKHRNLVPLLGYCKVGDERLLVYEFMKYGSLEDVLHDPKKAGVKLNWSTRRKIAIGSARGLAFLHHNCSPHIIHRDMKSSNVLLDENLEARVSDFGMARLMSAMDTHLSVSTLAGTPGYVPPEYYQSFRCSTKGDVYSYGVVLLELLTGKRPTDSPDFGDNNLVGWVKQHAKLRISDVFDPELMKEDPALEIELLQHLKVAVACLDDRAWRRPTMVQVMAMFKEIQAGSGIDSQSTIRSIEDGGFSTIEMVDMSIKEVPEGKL", "T1 sequence (Q94F62 26-615 partner)": "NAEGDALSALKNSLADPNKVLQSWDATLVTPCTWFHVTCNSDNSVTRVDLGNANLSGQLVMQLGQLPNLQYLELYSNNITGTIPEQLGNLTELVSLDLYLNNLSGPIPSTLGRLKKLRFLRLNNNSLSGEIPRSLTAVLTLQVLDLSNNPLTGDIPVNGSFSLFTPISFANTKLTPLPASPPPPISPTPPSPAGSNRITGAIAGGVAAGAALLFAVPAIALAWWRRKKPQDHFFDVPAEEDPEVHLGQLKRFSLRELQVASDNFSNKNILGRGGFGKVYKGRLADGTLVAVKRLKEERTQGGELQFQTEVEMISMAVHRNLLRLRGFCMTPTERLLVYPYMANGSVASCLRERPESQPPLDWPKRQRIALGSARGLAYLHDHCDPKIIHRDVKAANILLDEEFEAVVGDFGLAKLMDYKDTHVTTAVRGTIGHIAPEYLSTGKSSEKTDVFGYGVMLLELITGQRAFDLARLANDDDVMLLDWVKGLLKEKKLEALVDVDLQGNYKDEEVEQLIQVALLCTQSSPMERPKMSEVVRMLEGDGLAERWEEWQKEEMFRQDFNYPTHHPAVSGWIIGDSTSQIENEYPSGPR", "test": "Co-immunoprecipitation of BRI1 with BRK1", "assay_type": "in vivo", "conditions": "100 nM brassinolide for 30 min; microsomal proteins immunoprecipitated with anti-GFP antibodies; plants co-expressing BRK1-myc and BRI1-GFP (FIG. 2D)", "procedure": "FIGS. 2A-2D show BRK1 is a substrate of BRI1. FIGS. 2A and 2B show BRI1 phosphorylates serine230 of BRK1 in vitro. […] YFP fluorescence images of N. benthamiana leaf epidermal cells co-transformed with the indicated constructs. […] Arabidopsis plants expressing BRK1-myc only (lanes 1 and 4) or co-expressing BRK1-myc and BRI1-GFP (lanes 2, 3, 5, 6) were treated with 100 nM brassinolide (BL+) or mock solution (BL−) for 30 min. Microsomal proteins (lanes 1 to 3) were immunprecipitated with anti-GFP antibodies (lanes 4 to 6), and the immunoblot was probed using anti-GFP antibodies or anti-myc antibodies.\nAll procedures were performed at 4° C. Rosette leaves of 3-week-old Arabidopsis plants were homogenized with mortar and pestle in the grinding buffer (20 mM HEPES, pH 7.5, 40 mM KCl, 250 mM sucrose, 5 mM MgCl2 and protein inhibitors) at a ratio of 3 mL buffer per gram of tissue. Homogenate was filtered through 2 layers of Miracloth (CalBiochem, La Jolla, Calif.), and centrifuged at 10,000 g for 10 minutes. The supernatant was further centrifuged at 100,000 g for 60 min to pellet the microsomal fraction. Microsomes were re-suspended in 0.5 mL grinding buffer and sonicated for 10 sec. Triton X-100 was added to a final concentration of 1%. After mixing, the extracts were centrifuged at 20,000 g for 10 min. […] Samples were analyzed by SDS-PAGE and immunoblotting."}, "wild type plants": {"test_system": "wild type plants", "test": "Hypocotyl and root growth assay", "assay_type": "in vivo, Arabidopsis thaliana", "conditions": "wild type plants grown in the light", "procedure": "The det2-1 and bzr1-1D mutants are in Arabidopsis thaliana Columbia ecotype background, and bri1-5 is in the WS ecotype. For hypocotyl and root growth assay, seedlings were grown on vertical phytoagar plate containing ^1/2 MS medium and 1% sucrose (pH 5.7) in the dark for 4 days or under continuous light for 7 days. Confocal microscopy and BiFC analysis were performed according to Gampala et al. (Gampala et al., Dev Cell 13, 177 (August, 2007)).\nArabidopsis seeds were surface sterilized by first soaking in 70% ethanol plus 0.1% Triton X-100 for 15 min followed by soaking in 96% ethanol for another 10 mins. Sterilized seeds were air dried in the hood and sowed on agar plate of Murashige and Skoog (MS) medium or MS plate plus BRZ or Brassinolide. The seeds were incubated at 4° C. for 3 days to synchronize germination and then grown for 4 days in dark or 7 days under continuous light before taking pictures for measurement. For measurement of hypocotyls or root growth, the plates were first scanned using a image scanner at a resolution of 300 dpi, and the images were input into computer software Image J to measure the root or hypocotyl length."}},
  "data": [
    {"smiles": "CC(C)[C@H](C)[C@@H](O)[C@H](O)[C@@H](C)[C@H]1CC[C@H]2[C@@H]3COC(=O)[C@H]4C[C@H](O)[C@H](O)C[C@]4(C)[C@H]3CC[C@]12C", "note": "[Brassinolide]", "values": [
      {"measurement": "amount of the co-immunoprecipitated BRK1-myc", "setting": "BRI1-GFP and BRK1-myc", "value": "46 % of the untreated sample"},
      {"measurement": "hypocotyl elongation", "setting": "wild type plants", "value": "increases hypocotyl elongation"},
      {"measurement": "root growth", "setting": "wild type plants", "value": "inhibits root growth"}
    ]}
  ]
}
